{"source": "patent US9283233B2", "about": "“Method for on-demand contraception” (LABORATOIRE HRA PHARMA, priority 2009, dated 2016)", "key": {"[1]": {"assay": "Multiple intakes of ulipristal acetate within a menstrual cycle after declared intercourse (pregnancy outcome)", "type": "in vivo", "details": "30 mg after a declared intercourse, twice during a menstrual cycle; several women (5 in the table)", "procedure": "Multiple Intakes of Ulipristal Acetate within a Menstrual Cycle\nSeveral women received ulipristal acetate (30 mg) after a declared intercourse, twice during a menstrual cycle."}, "[2]": {"assay": "3 months of continuous daily administration to healthy cycling volunteers; assessment of ovarian hormones, follicular development, endometrial histology, bleeding patterns", "type": "in vivo, women", "details": "one patient, 10 mg/day, missed 2 days of drug (days 1 and 2) in third treatment cycle", "procedure": "For that purpose, health cycling volunteers received 3 months of continuous daily administration of ulipristal acetate (2.5, 5 or 10 mg) or placebo.\nAssessment of ovarian hormones, follicular development, endometrial histology, and menstrual bleeding patterns was carried out during the third month of treatment.\nThis made the inventors think that ulipristal acetate could be used as a contraceptive which could be taken on-demand, rather than everyday as any hormonal contraceptive pill."}, "[3]": {"details": "single dose of 50 mg, within 72 hours after unprotected intercourse; cited from earlier work"}}, "data": [{"smiles": "CC(=O)O[C@]1(C(C)=O)CC[C@H]2[C@@H]3CCC4=CC(=O)CCC4=C3[C@@H](c3ccc(N(C)C)cc3)C[C@@]21C", "note": "[ulipristal acetate, 17α-acetoxy-11β-[4-N,N-dimethylamino-phenyl)-19-norpregna-4,9-diene-3,20-dione]", "values": [{"measurement": "pregnancy", "setting": "[1]", "result": "No pregnancy was observed"}, {"measurement": "luteal activity or ovulation", "setting": "[2]", "result": "no sign of luteal activity or ovulation"}, {"measurement": "safety and efficacy as emergency contraception", "setting": "[3]", "result": "safe and efficacious"}]}]}
